{"source": "ChEMBL document CHEMBL1155168", "about": "“Bound to shock: protection from lethal endotoxemic shock by a novel, nontoxic, alkylpolyamine lipopolysaccharide sequestrant” (Antimicrob Agents Chemother, 2007)", "key": {"Escherichia coli [1]": {"tested_on": "Escherichia coli", "experiment": "Displacement of BODIPY-cadaverine from Escherichia coli O111:B4 lipopolysaccharide"}, "HEK-Blue [2]": {"tested_on": "HEK-Blue", "experiment": "Inhibition of TNF-alpha-stimulated NF-kappaB induction in HEK-Blue cells assessed as expression of secreted alkaline phosphatase by seAP assay", "type": "functional, cell-based", "conditions": "Homo sapiens"}, "HEK-Blue [3]": {"tested_on": "HEK-Blue", "experiment": "Inhibition of phorbol esters-stimulated NF-kappaB induction in HEK-Blue cells assessed as expression of secreted alkaline phosphatase by seAP assay", "type": "functional, cell-based", "conditions": "Homo sapiens"}, "HEK-Blue [4]": {"tested_on": "HEK-Blue", "experiment": "Inhibition of ionomycin-stimulated NF-kappaB induction in HEK-Blue cells assessed as expression of secreted alkaline phosphatase by seAP assay", "type": "functional, cell-based", "conditions": "Homo sapiens"}, "HEK-Blue [5]": {"tested_on": "HEK-Blue", "experiment": "Inhibition of IL-1-beta-stimulated NF-kappaB induction in HEK-Blue cells assessed as expression of secreted alkaline phosphatase by seAP assay", "type": "functional, cell-based", "conditions": "Homo sapiens"}, "Escherichia coli [6]": {"tested_on": "Escherichia coli", "experiment": "Ex vivo inhibition of Escherichia coli lipopolysaccharide-stimulated T180/Y182 dual phosphorylation of p38 MAPK in human whole blood by flow cytometry", "type": "tissue-based"}, "Blood": {"tested_on": "Blood", "experiment": "Ex vivo inhibition of TNF-alpha-stimulated T180/Y182 dual phosphorylation of p38 MAPK in human whole blood by flow cytometry", "type": "functional, tissue-based"}, "Mus musculus [7]": {"tested_on": "Mus musculus", "experiment": "Increase in survivality of ip dosed D-galactosamine-primed mouse model of LPS-induced lethal septic shock administered as precomplex with LPS", "type": "functional, organism-based"}, "Mus musculus [8]": {"tested_on": "Mus musculus", "experiment": "Increase in survivality of sc dosed D-galactosamine-primed CF1 mouse model of LPS-induced lethal septic shock administered 1 hr prior to LPS challenge", "type": "functional, organism-based"}, "J774.A1": {"tested_on": "J774.A1", "experiment": "Inhibition of LPS-stimulated nitric oxide production in mouse J774A.1 cells after 16 hrs", "type": "functional, cell-based"}, "[9]": {"experiment": "Inhibition of LPS-stimulated NF-kappaB induction in HEK-Blue cells assessed as expression of secreted alkaline phosphatase by seAP assay", "type": "cell-based"}, "[10]": {"experiment": "Inhibition of Escherichia coli O111:B4 lipopolysaccharide-stimulated NF-kappaB induction in HEK-Blue cells assessed as expression of secreted alkaline phosphatase by seAP assay", "type": "cell-based"}, "[11]": {"experiment": "Inhibition of Escherichia coli 055:B5 lipopolysaccharide-stimulated NF-kappaB induction in HEK-Blue cells assessed as expression of secreted alkaline phosphatase by seAP assay", "type": "cell-based"}, "[12]": {"experiment": "Inhibition of Salmonella enterica serovar Abortus equi lipopolysaccharide-stimulated NF-kappaB induction in HEK-Blue cells assessed as expression of secreted alkaline phosphatase by seAP assay", "type": "cell-based"}, "[13]": {"experiment": "Inhibition of Pseudomonas aeruginosa lipopolysaccharide-stimulated NF-kappaB induction in HEK-Blue cells assessed as expression of secreted alkaline phosphatase by seAP assay", "type": "cell-based"}, "[14]": {"experiment": "Ex vivo inhibition of Escherichia coli lipopolysaccharide-stimulated TNFalpha production in human whole blood by multiplexed flow cytometric bead array system", "type": "tissue-based"}, "[15]": {"experiment": "Ex vivo inhibition of Escherichia coli lipopolysaccharide-stimulated IL6 production in human whole blood by multiplexed flow cytometric bead array system", "type": "tissue-based"}, "[16]": {"experiment": "Ex vivo inhibition of Escherichia coli lipopolysaccharide-stimulated IL8 production in human whole blood by multiplexed flow cytometric bead array system", "type": "tissue-based"}, "[17]": {"experiment": "Inhibition of Vibrio cholerae lipopolysaccharide-stimulated NF-kappaB induction in HEK-Blue cells assessed as expression of secreted alkaline phosphatase by seAP assay", "type": "cell-based"}, "Mus musculus [18]": {"tested_on": "Mus musculus", "experiment": "Increase in survivality of sc dosed D-galactosamine-primed mouse model of TNF-alpha-induced lethal septic shock", "type": "functional, organism-based"}, "Mus musculus [19]": {"tested_on": "Mus musculus", "experiment": "Toxicity in mouse at 40 mg/kg/day, sc after 5 days", "type": "organism-based", "parameters": "route subcutaneous", "conditions": "in vivo, 120 h"}, "Mus musculus [20]": {"tested_on": "Mus musculus", "experiment": "Toxicity in mouse in mouse assessed as polyamine level in plasma at 40 mg/kg/day, sc for 5 days relative to control", "type": "organism-based", "parameters": "route subcutaneous", "conditions": "in vivo, 120 h"}, "Mus musculus [21]": {"tested_on": "Mus musculus", "experiment": "Inhibition of LPS-induced cytokines levels in D-galactosamine-primed mouse model of at 4 mg/kg, sc", "type": "functional, organism-based", "parameters": "dose 4 mg/kg"}}, "note": "pIC50: −log10 of the molar value. The source made the active and inactive calls. The calls are words filed in the database; no cut-off is given here."}
{"molecule": "POLYMYXIN B [listing 1 of 2 here]", "values": [{"measurement": "ED50", "setting": "Escherichia coli [1]", "result": 1.31, "unit": "µM"}, {"measurement": "Activity", "setting": "HEK-Blue [2]", "result": "inactive"}, {"measurement": "Activity", "setting": "HEK-Blue [3]", "result": "inactive"}, {"measurement": "Activity", "setting": "HEK-Blue [4]", "result": "inactive"}, {"measurement": "Activity", "setting": "HEK-Blue [5]", "result": "inactive"}, {"measurement": "Activity", "setting": "Escherichia coli [6]", "result": "Dose-dependent effect"}, {"measurement": "Activity", "setting": "Blood", "result": "inactive"}, {"measurement": "Activity", "setting": "Mus musculus [7]", "result": "Dose-dependent effect"}, {"measurement": "Activity", "setting": "Mus musculus [8]", "result": "Dose-dependent effect"}]}
{"molecule": "POLYMYXIN B [listing 2 of 2 here]", "values": [{"measurement": "pIC50", "setting": "J774.A1; j774.a1", "result": 7.57}, {"measurement": "pIC50", "setting": "[9]; hek-blue", "result": 7.49}, {"measurement": "pIC50", "setting": "[10]; hek-blue", "result": 7.52}, {"measurement": "pIC50", "setting": "[11]; hek-blue", "result": 7.52}, {"measurement": "pIC50", "setting": "[12]; hek-blue", "result": 6.25}, {"measurement": "pIC50", "setting": "[13]; hek-blue", "result": 7.52}, {"measurement": "pIC50", "setting": "[14]", "result": 4.96}, {"measurement": "pIC50", "setting": "[15]", "result": 4.96}, {"measurement": "pIC50", "setting": "[16]", "result": 4.96}, {"measurement": "pIC50", "setting": "[17]; hek-blue", "result": 7.52}]}
{"molecule": "CCCCCCCCCCCCCCCCNCCCNCCCNCCCCNCCCN.O=C(O)C(F)(F)F", "values": [{"measurement": "ED50", "setting": "Escherichia coli [1]", "result": 1.2, "unit": "µM"}, {"measurement": "pIC50", "setting": "J774.A1; Mus musculus, J774.A1, 16 h", "result": 7.68}, {"measurement": "pIC50", "setting": "[9]; HEK-Blue", "result": 7.49}, {"measurement": "Activity", "setting": "HEK-Blue [2]", "result": "inactive"}, {"measurement": "Activity", "setting": "HEK-Blue [3]", "result": "inactive"}, {"measurement": "Activity", "setting": "HEK-Blue [4]", "result": "inactive"}, {"measurement": "Activity", "setting": "HEK-Blue [5]", "result": "inactive"}, {"measurement": "pIC50", "setting": "[10]; Escherichia coli, HEK-Blue", "result": 7.52}, {"measurement": "pIC50", "setting": "[11]; Escherichia coli, HEK-Blue", "result": 7.52}, {"measurement": "pIC50", "setting": "[12]; Salmonella enterica, HEK-Blue", "result": 7.09}, {"measurement": "pIC50", "setting": "[13]; Pseudomonas aeruginosa, HEK-Blue", "result": 7.52}, {"measurement": "Activity", "setting": "Blood", "result": "inactive"}, {"measurement": "pIC50", "setting": "[14]; Escherichia coli, Blood", "result": 5.52}, {"measurement": "pIC50", "setting": "[15]; Escherichia coli, Blood", "result": 5.52}, {"measurement": "pIC50", "setting": "[16]; Escherichia coli, Blood", "result": 5.52}, {"measurement": "Activity", "setting": "Mus musculus [7]", "result": "Dose-dependent effect"}, {"measurement": "Activity", "setting": "Mus musculus [8]", "result": "Dose-dependent effect"}, {"measurement": "Activity", "setting": "Mus musculus [18]", "result": "inactive"}, {"measurement": "Activity", "setting": "Mus musculus [19]", "result": "Non-toxic"}, {"measurement": "Activity", "setting": "Mus musculus [20]", "result": "Non-toxic"}, {"measurement": "pIC50", "setting": "[17]; Vibrio cholerae, HEK-Blue", "result": 7.52}, {"measurement": "Activity", "setting": "Mus musculus [21]", "result": "Active"}]}
